Each structure is given as a SMILES string. ≈ marks a conversion by molar mass, not a printed value.

By solubility is commonly meant how much of the substance goes into solution per volume. Broadly, the logP is the decadic logarithm of the partition coefficient of the neutral form, usually between octanol and water.

The nature of series [1]: Apparent solubility of compound in fed state simulated intestinal fluid at pH 5 by spectrophotometric analysis. In kind it is physicochemical.
Series [2] can be described thus: Thermodynamic solubility of compound in buffer containing HCl/KCl with 1% v/v DMSO at pH 1.2 incubated for 24 hrs by spectrophotometric analysis. It is filed as physicochemical. As to conditions: for solubility thermodynamic at 24 h: HCl/KCl buffer, pH 1.2, read-out: Therm_solubility; for Therm_solubility: buffer, pH 1.2, 24 h.
A short description of series [3]: Apparent solubility of compound in fasted state simulated intestinal fluid at pH 6.5 by spectrophotometric analysis. In kind it is physicochemical.
The nature of series [4]: Thermodynamic solubility of compound in buffer containing KH2PO4/Na2HPO4 with 1% v/v DMSO at pH 6.8 incubated for 24 hrs by spectrophotometric analysis. It is filed as physicochemical. As to conditions: for solubility thermodynamic at 24 h: KH2PO4/Na2HPO4 buffer, pH 6.8, read-out: Therm_solubility; for Therm_solubility: buffer, pH 6.8, 24 h.
A short description of series [5]: Thermodynamic solubility of compound in buffer containing KH2PO4/Na2HPO4 with 1% v/v DMSO at pH 7.4 incubated for 24 hrs by spectrophotometric analysis. It is filed as physicochemical. As to conditions: for solubility thermodynamic at 24 h: KH2PO4/Na2HPO4 buffer, pH 7.4, read-out: Therm_solubility.
Series [6] can be described thus: Kinetic solubility of compound in HDM-PAMPA with buffer containing 5% DMSO at pH 7.4 incubated for 5 hrs by spectrophotometric analysis. In kind it is ADME. As to conditions: read-out: Kinetic_solubility.
Series [7] is described as follows: Kinetic solubility of compound in HDM-PAMPA with buffer containing 5% DMSO at pH 6.8 incubated for 5 hrs by spectrophotometric analysis. In kind it is ADME. As to conditions: for solubility kinetic at 5 h: HDM-PAMPA buffer, pH 6.8, read-out: Kinetic_solubility.
Series [8] in a line: Kinetic solubility of compound in HDM-PAMPA with buffer containing 5% DMSO at pH 1.2 incubated for 5 hrs by spectrophotometric analysis. In kind it is ADME. As to conditions: for solubility kinetic at 5 h: HDM-PAMPA buffer, pH 1.2, read-out: Kinetic_solubility; for Kinetic_solubility: pampa, pH 1.2, 5 h. (In general: PAMPA measures passive passage across an artificial lipid membrane.)

The nature of series [9]: Octanol/water partition coefficient, logP of compound by RP-UHPLC analysis. In kind it is physicochemical.
The nature of series [10]: Solubility of the compound in water. In kind it is physicochemical.
Series [11] in a line: Ratio of compound kinetic solubility to clofibric acid kinetic solubility in HDM-PAMPA with buffer containing 5% DMSO at pH 7.4 incubated for 5 hrs by spectrophotometric analysis.
The nature of series [12]: Ratio of compound kinetic solubility to gemfibrozil kinetic solubility in HDM-PAMPA with buffer containing 5% DMSO at pH 6.8 incubated for 5 hrs by spectrophotometric analysis.
Series [13] can be described thus: Ratio of compound kinetic solubility to gemfibrozil kinetic solubility in HDM-PAMPA with buffer containing 5% DMSO at pH 7.4 incubated for 5 hrs by spectrophotometric analysis.
Series [14] is described as follows: Ratio of compound kinetic solubility to clofibric acid kinetic solubility in HDM-PAMPA with buffer containing 5% DMSO at pH 6.8 incubated for 5 hrs by spectrophotometric analysis.

Regarding `CC(C)(Oc1ccc(Cl)cc1)C(=O)O` [CLOFIBRIC ACID], the solubility in [1] and in [3] was above 50 µg/mL throughout. In addition, the solubility thermodynamic at 24 h in [2], in [4] and in series [5] was above 50 µg/mL throughout. Further, the solubility kinetic at 5 h in series [6], in [7] and in series [8] was above 100 µg/mL each time. For the same compound, the logP in [9] stood at 2.96.
Turning to `CC(C)(Oc1ccc(CCCOc2ccc(C(=O)/C=C/c3ccccc3)cc2)cc1)C(=O)O`, the solubility in series [1] was 17.8 µg/mL (≈ 39.9 µM); in series [3], 19.6 µg/mL (≈ 44.2 µM). Also, the Therm_solubility result in [2] is listed as “Insoluble(Bld)”. Moreover, the figures for the solubility thermodynamic at 24 h in [4] and in [5] were 16 µg/mL (≈ 35.9 µM) and 17.5 µg/mL (≈ 39.3 µM), respectively. The solubility kinetic at 5 h in [6] came out at 67.6 µg/mL (≈ 152 µM); in [7], 68.4 µg/mL (≈ 154 µM). Besides, the Kinetic_solubility entry in series [8] is “Insoluble(Bld)”. This compound registered a logP in series [9] of 6.55.
Turning to `CC(C)(Oc1ccc(CCCOc2ccc(/C=C/c3ccccc3)cc2)cc1)C(=O)O`, the solubility was 13.8 µg/mL (≈ 33.3 µM) in series [1] and 24.8 µg/mL (≈ 59.6 µM) in series [3]. In addition, in series [2], the Therm_solubility result was “Insoluble(Bld)”. Further, the solubility thermodynamic at 24 h in series [4] came out at 27.9 µg/mL (≈ 66.9 µM); in series [5] it was 26.9 µg/mL (≈ 64.7 µM). Moreover, the solubility kinetic at 5 h was 43 µg/mL (≈ 103 µM) in series [6], 44.2 µg/mL (≈ 106 µM) in series [7] and 0.89 µg/mL (≈ 2.14 µM) in [8]. Also, the log partition coefficient (logP) in series [9] worked out at 7.44.
In the case of `CCN(C)C(=O)Oc1cccc([C@H](C)N(C)C)c1` [RIVASTIGMINE], the concentration in solution in series [10] (solubility) came to 2040 µg/mL (≈ 8150 µM).
Consider `COc1ccc(/C=C/c2ccc(OCCCC(C)(C)C(=O)O)cc2)cc1`, for which the solubility in series [1] was 6.23 µg/mL (≈ 17.6 µM); in [3], 7.13 µg/mL (≈ 20.1 µM). In addition, the Therm_solubility entry in series [2] and in [4] was “Insoluble(Bld)” throughout. For the same compound, in [5], the solubility thermodynamic at 24 h came to 1.65 µg/mL (≈ 4.66 µM). Also, the solubility kinetic at 5 h in series [6] came out at 7.32 µg/mL (≈ 20.7 µM). Besides, the Kinetic_solubility result is “Insoluble(Bld)” in [7] (pampa, pH 6.8, 5 h) and “Insoluble(Bld)” in series [8]. This compound had a logP in series [9] of 6.08.
Consider `CC(C)(CCCOc1ccc(/C=C/c2ccccc2)cc1)C(=O)O`, for which the solubility was 7.39 µg/mL (≈ 22.8 µM) in [1] and 8.7 µg/mL (≈ 26.8 µM) in series [3]. Moreover, the Therm_solubility entry in series [2] was “Insoluble(Bld)”; in [4], “Insoluble(Bld)”; in series [5] (buffer, pH 7.4, 24 h), “Insoluble(Bld)”. Also, the solubility kinetic at 5 h in series [6] was 13 µg/mL (≈ 40.1 µM); in [7] it was 13.6 µg/mL (≈ 41.9 µM). Besides, in series [8], the Kinetic_solubility result is given as “Insoluble(Bld)”. In series [9], the logP was found to be 6.95.
Regarding `CC(C)(Oc1ccc(CCOc2ccc(/N=N/c3ccccc3)cc2)cc1)C(=O)O`, the solubility in [1] is above 100 µg/mL; in [3] it was 63.5 µg/mL (≈ 157 µM). Also, the Ratio in series [11], in [12], in series [13] and in [14] was 2 to 3 throughout. Also, in series [2], the Therm_solubility result is given as “Insoluble(Bld)”. For the same compound, the solubility thermodynamic at 24 h in series [4] is 13.9 µg/mL (≈ 34.5 µM); in [5] it was 25.5 µg/mL (≈ 62.9 µM). Also, the results for the solubility kinetic at 5 h in series [6] and in series [7] were 296 µg/mL (≈ 733 µM) and 300 µg/mL (≈ 741 µM), respectively. Moreover, in [8], the Kinetic_solubility entry is “Insoluble(Bld)”. The compound further yielded a logP in [9] of 6.63.
In the case of `Cc1ccc(C)c(OCCCC(C)(C)C(=O)O)c1` [GEMFIBROZIL], the solubility in series [1] and in series [3] was above 25 µg/mL each time. The solubility thermodynamic at 24 h in [2] was 15.5 µg/mL (≈ 61.8 µM); in series [4], above 25 µg/mL; in [5], above 25 µg/mL. In addition, the values for the solubility kinetic at 5 h in series [6], in series [7] and in series [8] were above 120 µg/mL, above 120 µg/mL and 33.2 µg/mL (≈ 133 µM), respectively. In addition, the lipophilicity (logP) in [9] came out at 4.9.
